Reference: article PMC10046369, “Low-Affinity/High-Selectivity Dopamine Transport Inhibition Sufficient to Rescue Cognitive Functions in the Aging Rat” (Biomolecules, 2023)

Key:
Assay in all cases: biochemical
Design in all cases: KINOMEscan competition binding panel, per cent of control
Conditions in all cases: read-out: %Ctrl @ 2800nM
SRC = SRC (Homo sapiens, UniProt P12931)
Protocol: (§1) A panel of binding assays covering 450 human kinases and disease-relevant mutations was performed by DiscoverX (KINOMEscan®, Freemont, CA, USA) according to the standard and validated protocol defined by the contractor. […] Kinase binding assays This study was outsourced to DiscoverX (KINOMEscan®, Freemont, CA, USA) and is compliant with the corresponding project BUY004-01-p-00001. […] Results are reported as percent control (% Ctrl), where lower numbers indicate stronger hits in the matrix on the following page(s). %Ctrl calculation: ((test compound signal-positive control signal) / (negative control signal – positive control signal)) x 100.

[1] = target: T1, RPS6KA5(Kin.Dom.1-N-terminal) (Homo sapiens, UniProt O75582)
T1 construct: Kin.Dom.1-N-terminal
Protocol: as §1

EIF2AK1 = EIF2AK1 (Homo sapiens, UniProt Q9BQI3)
Protocol: as §1

PIP5K1A = PIP5K1A (Homo sapiens, UniProt Q99755)
Protocol: as §1

AURKC = AURKC (Homo sapiens, UniProt Q9UQB9)
Chain of AURKC (Q9UQB9 whole entry): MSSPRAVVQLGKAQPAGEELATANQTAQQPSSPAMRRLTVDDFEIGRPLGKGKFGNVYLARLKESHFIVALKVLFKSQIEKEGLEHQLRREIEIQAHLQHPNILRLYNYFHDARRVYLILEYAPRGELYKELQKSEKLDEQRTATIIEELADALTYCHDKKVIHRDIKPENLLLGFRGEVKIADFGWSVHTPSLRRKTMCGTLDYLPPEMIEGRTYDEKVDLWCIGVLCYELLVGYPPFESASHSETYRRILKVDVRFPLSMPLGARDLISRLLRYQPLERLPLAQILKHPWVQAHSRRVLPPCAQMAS
Protocol: as §1

NIM1 = target: T2, NIM1 (Homo sapiens, UniProt Q8IY84)
T2 construct: gene NIM1K
Protocol: as §1

[2] = target: T3, ABL1(H396P)-phosphorylated (Homo sapiens, UniProt P00519, H396P)
T3 construct: phosphorylated
Protocol: as §1

CDKL1 = CDKL1 (Homo sapiens, UniProt Q00532)
Chain of CDKL1 (Q00532 whole entry): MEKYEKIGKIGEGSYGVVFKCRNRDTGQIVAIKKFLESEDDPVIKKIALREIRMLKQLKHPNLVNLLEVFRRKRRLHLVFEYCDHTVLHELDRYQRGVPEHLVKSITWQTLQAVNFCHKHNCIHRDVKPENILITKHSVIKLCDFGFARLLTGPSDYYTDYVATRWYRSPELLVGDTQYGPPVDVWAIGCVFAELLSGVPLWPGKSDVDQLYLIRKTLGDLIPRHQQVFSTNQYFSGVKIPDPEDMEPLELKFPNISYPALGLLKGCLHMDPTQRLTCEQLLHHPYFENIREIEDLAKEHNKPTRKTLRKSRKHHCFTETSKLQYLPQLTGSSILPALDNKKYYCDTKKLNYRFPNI
Protocol: as §1

BMPR1B = BMPR1B (Homo sapiens, UniProt O00238)
Protocol: as §1

CSNK1A1L = CSNK1A1L (Homo sapiens, UniProt Q8N752)
Protocol: as §1

PRKR = target: T4, PRKR (Homo sapiens, UniProt P19525)
T4 construct: gene EIF2AK2
Protocol: as §1

ERK5 = target: T5, ERK5 (Homo sapiens, UniProt Q13164)
T5 construct: gene MAPK7
T5 sequence (Q13164 whole entry): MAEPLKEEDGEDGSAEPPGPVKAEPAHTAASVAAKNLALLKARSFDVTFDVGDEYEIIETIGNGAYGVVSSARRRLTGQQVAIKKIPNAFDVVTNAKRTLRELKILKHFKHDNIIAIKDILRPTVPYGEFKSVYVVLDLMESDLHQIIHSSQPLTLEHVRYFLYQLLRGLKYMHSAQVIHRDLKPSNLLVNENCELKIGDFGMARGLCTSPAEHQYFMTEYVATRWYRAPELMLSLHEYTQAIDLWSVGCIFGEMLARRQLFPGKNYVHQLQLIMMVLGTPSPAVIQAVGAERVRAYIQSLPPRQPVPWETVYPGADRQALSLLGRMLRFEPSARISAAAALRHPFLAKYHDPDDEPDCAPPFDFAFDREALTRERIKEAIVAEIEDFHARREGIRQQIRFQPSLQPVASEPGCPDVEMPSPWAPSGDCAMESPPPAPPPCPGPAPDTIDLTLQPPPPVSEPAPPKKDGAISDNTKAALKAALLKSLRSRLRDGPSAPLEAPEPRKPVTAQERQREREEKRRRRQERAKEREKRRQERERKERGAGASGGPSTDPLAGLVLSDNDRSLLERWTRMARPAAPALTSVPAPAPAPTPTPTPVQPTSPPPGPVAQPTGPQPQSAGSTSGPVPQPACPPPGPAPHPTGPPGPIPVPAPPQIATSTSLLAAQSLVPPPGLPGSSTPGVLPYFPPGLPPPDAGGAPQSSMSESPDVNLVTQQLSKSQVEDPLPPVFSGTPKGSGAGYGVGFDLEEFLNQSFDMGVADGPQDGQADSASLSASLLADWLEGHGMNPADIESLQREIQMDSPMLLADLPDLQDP
Protocol: as §1

[3] = target: T6, RSK3(Kin.Dom.1-N-terminal) (Homo sapiens, UniProt Q15349)
T6 construct: gene RPS6KA2; Kin.Dom.1-N-terminal
T6 sequence (Q15349 whole entry): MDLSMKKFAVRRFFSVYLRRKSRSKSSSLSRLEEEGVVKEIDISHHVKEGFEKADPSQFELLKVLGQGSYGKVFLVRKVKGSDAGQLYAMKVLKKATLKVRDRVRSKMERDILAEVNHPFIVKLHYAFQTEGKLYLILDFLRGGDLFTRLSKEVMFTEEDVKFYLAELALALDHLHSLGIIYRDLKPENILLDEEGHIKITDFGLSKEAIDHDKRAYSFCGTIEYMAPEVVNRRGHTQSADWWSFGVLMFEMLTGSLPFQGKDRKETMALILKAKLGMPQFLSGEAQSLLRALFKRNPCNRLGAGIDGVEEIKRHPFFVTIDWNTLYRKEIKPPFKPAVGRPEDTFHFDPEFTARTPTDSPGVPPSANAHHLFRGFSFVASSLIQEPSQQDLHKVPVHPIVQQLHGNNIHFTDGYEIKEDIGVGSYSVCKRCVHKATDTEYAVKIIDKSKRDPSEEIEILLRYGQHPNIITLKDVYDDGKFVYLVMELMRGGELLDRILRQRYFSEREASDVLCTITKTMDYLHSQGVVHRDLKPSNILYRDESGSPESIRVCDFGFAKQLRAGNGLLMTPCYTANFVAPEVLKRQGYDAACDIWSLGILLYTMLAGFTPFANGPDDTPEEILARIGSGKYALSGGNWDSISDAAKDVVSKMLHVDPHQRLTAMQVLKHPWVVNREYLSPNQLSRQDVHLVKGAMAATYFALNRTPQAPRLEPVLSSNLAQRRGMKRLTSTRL
Protocol: as §1

[4] = target: T7, JAK2(JH1domain-catalytic) (Homo sapiens, UniProt O60674)
T7 construct: JH1domain-catalytic
Protocol: as §1

[5] = target: T8, RSK1(Kin.Dom.1-N-terminal) (Homo sapiens, UniProt Q15418)
T8 construct: gene RPS6KA1; Kin.Dom.1-N-terminal
Protocol: as §1

PDGFRA = PDGFRA (Homo sapiens, UniProt P16234)
Protocol: as §1

MST2 = target: T9, MST2 (Homo sapiens, UniProt Q13188)
T9 construct: gene STK3
Protocol: as §1

GAK = GAK (Homo sapiens, UniProt O14976)
Chain of GAK (O14976 whole entry): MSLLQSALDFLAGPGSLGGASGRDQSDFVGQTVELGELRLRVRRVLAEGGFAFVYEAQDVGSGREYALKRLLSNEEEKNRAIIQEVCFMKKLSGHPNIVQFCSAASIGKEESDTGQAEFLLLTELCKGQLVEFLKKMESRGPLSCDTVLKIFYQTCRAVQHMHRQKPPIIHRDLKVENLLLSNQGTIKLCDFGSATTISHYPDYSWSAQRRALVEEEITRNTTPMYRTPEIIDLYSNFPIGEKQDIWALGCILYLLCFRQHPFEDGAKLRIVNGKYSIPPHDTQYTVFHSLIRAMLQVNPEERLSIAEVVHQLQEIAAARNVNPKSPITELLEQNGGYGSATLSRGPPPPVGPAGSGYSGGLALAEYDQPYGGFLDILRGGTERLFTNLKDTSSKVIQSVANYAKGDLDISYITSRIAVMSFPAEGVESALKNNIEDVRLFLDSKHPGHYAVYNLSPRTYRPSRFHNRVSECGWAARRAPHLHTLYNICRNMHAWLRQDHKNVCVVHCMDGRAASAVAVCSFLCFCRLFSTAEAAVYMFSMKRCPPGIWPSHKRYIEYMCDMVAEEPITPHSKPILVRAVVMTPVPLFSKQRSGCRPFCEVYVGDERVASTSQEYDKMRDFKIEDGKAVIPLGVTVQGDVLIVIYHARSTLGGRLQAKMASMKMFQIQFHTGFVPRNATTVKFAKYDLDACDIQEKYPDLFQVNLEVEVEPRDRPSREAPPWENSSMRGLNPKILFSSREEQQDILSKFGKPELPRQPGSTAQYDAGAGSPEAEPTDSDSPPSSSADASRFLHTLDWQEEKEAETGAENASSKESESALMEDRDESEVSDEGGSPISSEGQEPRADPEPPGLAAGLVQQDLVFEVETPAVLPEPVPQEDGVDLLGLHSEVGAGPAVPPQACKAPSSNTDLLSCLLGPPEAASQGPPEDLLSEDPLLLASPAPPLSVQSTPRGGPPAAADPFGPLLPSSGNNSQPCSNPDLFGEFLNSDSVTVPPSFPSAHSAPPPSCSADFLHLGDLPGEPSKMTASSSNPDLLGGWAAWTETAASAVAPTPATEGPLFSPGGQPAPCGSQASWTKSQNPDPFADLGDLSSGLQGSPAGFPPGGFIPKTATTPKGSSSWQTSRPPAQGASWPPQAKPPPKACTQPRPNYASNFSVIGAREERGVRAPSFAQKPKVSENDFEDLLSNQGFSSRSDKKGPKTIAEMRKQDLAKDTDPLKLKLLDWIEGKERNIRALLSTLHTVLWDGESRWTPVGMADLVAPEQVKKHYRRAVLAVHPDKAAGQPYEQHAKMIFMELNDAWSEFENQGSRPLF
Protocol: as §1

STK16 = STK16 (Homo sapiens, UniProt O75716)
Chain of STK16 (O75716 whole entry): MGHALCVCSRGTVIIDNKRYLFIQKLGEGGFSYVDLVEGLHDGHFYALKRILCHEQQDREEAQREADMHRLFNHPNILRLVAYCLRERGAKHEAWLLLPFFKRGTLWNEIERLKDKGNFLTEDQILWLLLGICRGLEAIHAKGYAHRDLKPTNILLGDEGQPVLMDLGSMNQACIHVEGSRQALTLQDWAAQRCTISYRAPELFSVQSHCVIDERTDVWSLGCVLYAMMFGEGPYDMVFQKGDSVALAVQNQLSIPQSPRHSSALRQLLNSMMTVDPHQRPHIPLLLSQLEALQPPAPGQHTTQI
Protocol: as §1

PFTAIRE2 = target: T10, PFTAIRE2 (Homo sapiens, UniProt Q96Q40)
T10 construct: gene CDK15
T10 sequence (Q96Q40 whole entry): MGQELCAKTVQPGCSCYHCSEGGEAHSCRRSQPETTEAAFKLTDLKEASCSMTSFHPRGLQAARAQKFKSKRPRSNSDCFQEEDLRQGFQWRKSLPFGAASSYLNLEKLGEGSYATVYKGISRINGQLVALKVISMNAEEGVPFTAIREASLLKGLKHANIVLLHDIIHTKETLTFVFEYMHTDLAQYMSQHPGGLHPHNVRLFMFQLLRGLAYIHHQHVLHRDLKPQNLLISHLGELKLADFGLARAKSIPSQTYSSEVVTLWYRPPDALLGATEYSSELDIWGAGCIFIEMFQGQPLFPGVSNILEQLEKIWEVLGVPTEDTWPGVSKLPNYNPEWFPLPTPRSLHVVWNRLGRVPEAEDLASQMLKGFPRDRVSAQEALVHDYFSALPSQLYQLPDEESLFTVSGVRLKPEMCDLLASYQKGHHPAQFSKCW
Protocol: as §1

MLK3 = target: T11, MLK3 (Homo sapiens, UniProt Q16584)
T11 construct: gene MAP3K11
Protocol: as §1

EPHB6 = EPHB6 (Homo sapiens, UniProt O15197)
Protocol: as §1

MST4 = target: T12, MST4 (Homo sapiens, UniProt Q9P289)
T12 construct: gene STK26
Protocol: as §1

CAMK1B = target: T13, CAMK1B (Homo sapiens, UniProt Q6P2M8)
T13 construct: gene PNCK
Protocol: as §1

ALK(C1156Y) = ALK(C1156Y) (Homo sapiens, UniProt Q9UM73, C1156Y)
Protocol: as §1

Chain of SRC (P12931 whole entry): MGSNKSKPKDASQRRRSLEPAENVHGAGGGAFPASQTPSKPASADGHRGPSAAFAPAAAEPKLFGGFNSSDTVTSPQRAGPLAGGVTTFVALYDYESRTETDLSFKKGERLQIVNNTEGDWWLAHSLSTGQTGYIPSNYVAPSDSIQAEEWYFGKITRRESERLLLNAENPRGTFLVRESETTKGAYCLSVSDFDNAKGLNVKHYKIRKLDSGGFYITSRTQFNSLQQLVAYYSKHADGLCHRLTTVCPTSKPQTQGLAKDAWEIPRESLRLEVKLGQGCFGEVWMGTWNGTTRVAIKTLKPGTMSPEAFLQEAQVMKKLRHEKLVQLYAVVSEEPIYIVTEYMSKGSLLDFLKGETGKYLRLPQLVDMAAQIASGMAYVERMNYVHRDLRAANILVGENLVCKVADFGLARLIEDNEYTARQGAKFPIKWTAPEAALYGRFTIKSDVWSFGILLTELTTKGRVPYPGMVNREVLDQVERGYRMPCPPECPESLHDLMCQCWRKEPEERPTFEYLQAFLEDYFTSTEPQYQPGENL

[O-][S@@+](Cc1cncs1)C(c1ccccc1)c1ccccc1 [S-CE-123, (S)-5-((Benzhydrylsulfinyl)Methyl)Thiazole]
remaining binding at 2.8 µM (SRC): 100%
remaining binding at 2.8 µM [1]: 100%
remaining binding at 2.8 µM (EIF2AK1): 100%
remaining binding at 2.8 µM (PIP5K1A): 95%
remaining binding at 2.8 µM (AURKC): 100%
remaining binding at 2.8 µM (NIM1): 97%
remaining binding at 2.8 µM [2]: 90%
remaining binding at 2.8 µM (CDKL1): 100%
remaining binding at 2.8 µM (BMPR1B): 100%
remaining binding at 2.8 µM (CSNK1A1L): 100%
remaining binding at 2.8 µM (PRKR): 93%
remaining binding at 2.8 µM (ERK5): 91%
remaining binding at 2.8 µM [3]: 100%
remaining binding at 2.8 µM [4]: 100%
remaining binding at 2.8 µM [5]: 80%
remaining binding at 2.8 µM (PDGFRA): 98%
remaining binding at 2.8 µM (MST2): 80%
remaining binding at 2.8 µM (GAK): 100%
remaining binding at 2.8 µM (STK16): 97%
remaining binding at 2.8 µM (PFTAIRE2): 100%
remaining binding at 2.8 µM (MLK3): 100%
remaining binding at 2.8 µM (EPHB6): 89%
remaining binding at 2.8 µM (MST4): 100%
remaining binding at 2.8 µM (CAMK1B): 100%
remaining binding at 2.8 µM (ALK(C1156Y)): 100%
